# Test results as given in patent US8785614B2, “Aberrantly methylated genes in pancreatic cancer” (The Johns Hopkins University, priority 2003, dated 2014).
# Like-named read-outs stand apart in the source and are kept apart here.
# Key:
# [1] = system: MiaPaCa2 pancreatic cancer cell line
# Experimental: (§1) Mock-treated cells were cultured with the equivalent volume of PBS alone.
# (§2) Total RNA was isolated from cultured cells using TRIZOL reagent (invitrogen, Carlsbad, Calif.) and purified using RNeasy Mini Kit (Qiagen, Valencia, Calif.). First- and second-stranded cDNA was synthesized from 10 μg of total RNA using 17-dT) primer (Genset Corp., La Jolla, Calif.) and Superscript Choice system (Invitrogen). Labeled cRNA was synthesized from the purified cDNA by in vitro transcription reaction using the BioArray High Yield RNA Transcript Labeling Kit (Enzo Diagnostics, Inc., Farmingdale, N.Y.) at 37° C. for 6 h. The cRNA was fragmented at 94° C. for 35 min. in a fragmentation buffer [40 mM Tris-acetate @ pH 8.1, 100 mM potassium acestate, and 30 mM magnesium acetate]. The fragmented cRNA was then hybridized to the Human Genome U133A chips (Affymetrix, Santa Clara, Calif.) with 18462 unique gene/EST transcripts at 45° C. for 16 h. The washing and staining procedure was performed in the Affymetrix Fluidics Station according to the manufacturer's instructions. The probes were then scanned using a laser scanner, and signal intensity for each transcript (background-subtracted and adjusted for noise) was calculated using Microarray Suite Software 5.0 (Affymetrix).
# (§3) Fold change analysis of signal intensities obtained from oligonucleotide microarrays between the two treatment groups was performed using Data Mining software (Afrymetrix).
# (§4) The global changes in gene expression proxies induced by 5Aza-dC in four pancreatic cancer cell lines (AsPCl, Hs766T, MiaPaCa2, and Panel) were determined using the Afrymetrix U133 oligonucleotide microarrays with 18462 probes sets (transcripts) covering over 13000 full-length sequences of known genes.
# [2] = system: AsPC1 pancreatic cancer cell line
# Experimental: as §1, §2, §3, §4
structure (smiles),measurement,setting,value
"Nc1ncn([C@H]2C[C@H](O)[C@@H](CO)O2)c(=O)n1 [5Aza-dC, 5 aza 2′ deoxycytidine]",Fold-change after 5Aza-dC treatment,"[1]; ANGPT2, MiaPaCa2",2.27 fold
same,Fold-change after 5Aza-dC treatment,"[1]; BARD1, MiaPaCa2",−1.3 fold
same,Fold-change after 5Aza-dC treatment,"[1]; BNIP3, MiaPaCa2",21.32 fold
same,Fold-change after 5Aza-dC treatment,"[1]; BST2, MiaPaCa2",8.59 fold
same,Fold-change after 5Aza-dC treatment,"[1]; CACNA1G, MiaPaCa2",1.61 fold
same,Fold-change after 5Aza-dC treatment,"[1]; CCNE2, MiaPaCa2",1.09 fold
same,Fold-change after 5Aza-dC treatment,"[1]; CDH3, MiaPaCa2",5.79 fold
same,Fold-change after 5Aza-dC treatment,"[1]; CDKN1A (p21), MiaPaCa2",7.04 fold
same,Fold-change after 5Aza-dC treatment,"[1]; CDKN1C, MiaPaCa2",2.28 fold
same,Fold-change after 5Aza-dC treatment,"[1]; CLDN5, MiaPaCa2",1.67 fold
same,Fold-change after 5Aza-dC treatment,"[1]; CSF1, MiaPaCa2",4.23 fold
same,Fold-change after 5Aza-dC treatment,"[1]; DR3, MiaPaCa2",2.12 fold
same,Fold-change after 5Aza-dC treatment,"[1]; FOXE1, MiaPaCa2",3.8 fold
same,Fold-change after 5Aza-dC treatment,"[1]; GAGE1, MiaPaCa2",6.7 fold
same,Fold-change after 5Aza-dC treatment,"[1]; GAGE3, MiaPaCa2",15.22 fold
same,Fold-change after 5Aza-dC treatment,"[1]; GAGE4, MiaPaCa2",47.6 fold
same,Fold-change after 5Aza-dC treatment,"[1]; GAGE6, MiaPaCa2",24.03 fold
same,Fold-change after 5Aza-dC treatment,"[1]; GAGE7, MiaPaCa2",54.35 fold
same,Fold-change after 5Aza-dC treatment,"[1]; HOXA1, MiaPaCa2",2.56 fold
same,Fold-change after 5Aza-dC treatment,"[1]; IGF2, MiaPaCa2",0.81 fold
same,Fold-change after 5Aza-dC treatment,"[1]; IL1R1, MiaPaCa2",−1.77 fold
same,Fold-change after 5Aza-dC treatment,"[1]; ISG20, MiaPaCa2",21.28 fold
same,Fold-change after 5Aza-dC treatment,"[1]; JPH3, MiaPaCa2",1.4 fold
same,Fold-change after 5Aza-dC treatment,"[1]; KLK10, MiaPaCa2",136.95 fold
same,Fold-change after 5Aza-dC treatment,"[1]; LDOC1, MiaPaCa2",−1.01 fold
same,Fold-change after 5Aza-dC treatment,"[1]; LHX1, MiaPaCa2",1.89 fold
same,Fold-change after 5Aza-dC treatment,"[1]; MAGE1, MiaPaCa2",2.27 fold
same,Fold-change after 5Aza-dC treatment,"[1]; MATN1, MiaPaCa2",−1.01 fold
same,"transcripts with >5-fold increase, share of the 18462 transcripts analyzed",[1]; MiaPaCa2,1.4%
same,transcripts with substantial increase (>5-fold) in signal intensities,"[1]; MiaPaCa2, vs mock-treated",251 transcripts
same,Fold-change after 5Aza-dC treatment,"[1]; NEFH, MiaPaCa2",6.73 fold
same,Fold-change after 5Aza-dC treatment,"[1]; NPTX2, MiaPaCa2",6.4 fold
same,Fold-change after 5Aza-dC treatment,"[1]; PAX6, MiaPaCa2",−1.12 fold
same,Fold-change after 5Aza-dC treatment,"[1]; PDYN, MiaPaCa2",3.48 fold
same,Fold-change after 5Aza-dC treatment,"[1]; PLAT, MiaPaCa2",6.4 fold
same,Fold-change after 5Aza-dC treatment,"[1]; PLEK2, MiaPaCa2",7.5 fold
same,Fold-change after 5Aza-dC treatment,"[1]; SARP2, MiaPaCa2",38.33 fold
same,Fold-change after 5Aza-dC treatment,"[1]; SMARCA1, MiaPaCa2",−1.07 fold
same,Fold-change after 5Aza-dC treatment,"[1]; ST14, MiaPaCa2",1.48 fold
same,Fold-change after 5Aza-dC treatment,"[1]; TIMP3, MiaPaCa2",1 fold
same,Fold-change after 5Aza-dC treatment,"[1]; TJP2, MiaPaCa2",8.61 fold
same,Fold-change after 5Aza-dC treatment,"[1]; TNF, MiaPaCa2",31.63 fold
same,Fold-change after 5Aza-dC treatment,"[1]; UCHL1, MiaPaCa2",5.27 fold
same,Fold-change after 5Aza-dC treatment,"[1]; WNT7A, MiaPaCa2",6.24 fold
same,Fold-change after 5Aza-dC treatment,"[1]; XAGE-1, MiaPaCa2",12.99 fold
same,Fold-change after 5Aza-dC treatment,"[1]; granulocytemacrophage colony-stimulating factor (M11734), MiaPaCa2",3.97 fold
same,Fold-change after 5Aza-dC treatment,"[1]; interferon, alpha-inducible protein (NM_022873), MiaPaCa2",11.03 fold
same,Fold-change after 5Aza-dC treatment,"[1]; p53-induced protein (PIGII), MiaPaCa2",5.45 fold
same,Fold-change after 5Aza-dC treatment,"[1]; reprimo, MiaPaCa2",−1.09 fold
same,Fold-change after 5Aza-dC treatment,"[1]; stratifin (14-3-3 sigma), MiaPaCa2",34.77 fold
same,Fold-change after 5Aza-dC treatment,"[1]; stromal antigen 3 (STAG5), MiaPaCa2",4.96 fold
same,Fold-change after 5Aza-dC treatment,"[1]; testin, MiaPaCa2",9.61 fold
same,Fold-change after 5Aza-dC treatment,"[2]; ANGPT2, AsPC1",6.15 fold
same,"transcripts with >5-fold increase, share of the 18462 transcripts analyzed",[2]; AsPC1,1.2%
same,transcripts with substantial increase (>5-fold) in signal intensities,"[2]; AsPC1, vs mock-treated",225 transcripts
same,Fold-change after 5Aza-dC treatment,"[2]; BARD1, AsPC1",−1.07 fold
same,Fold-change after 5Aza-dC treatment,"[2]; BNIP3, AsPC1",6.12 fold
same,Fold-change after 5Aza-dC treatment,"[2]; BST2, AsPC1",1.97 fold
same,Fold-change after 5Aza-dC treatment,"[2]; CACNA1G, AsPC1",1.83 fold
same,Fold-change after 5Aza-dC treatment,"[2]; CCNE2, AsPC1",1.48 fold
same,Fold-change after 5Aza-dC treatment,"[2]; CDKN1A (p21), AsPC1",2.21 fold
same,Fold-change after 5Aza-dC treatment,"[2]; CDKN1C, AsPC1",0.6 fold
same,Fold-change after 5Aza-dC treatment,"[2]; CLDN5, AsPC1",22.34 fold
same,Fold-change after 5Aza-dC treatment,"[2]; CSF1, AsPC1",1.12 fold
same,Fold-change after 5Aza-dC treatment,"[2]; DR3, AsPC1",1.47 fold
same,Fold-change after 5Aza-dC treatment,"[2]; FOXE1, AsPC1",3.51 fold
same,Fold-change after 5Aza-dC treatment,"[2]; GAGE1, AsPC1",−0.54 fold
same,Fold-change after 5Aza-dC treatment,"[2]; GAGE4, AsPC1",15.66 fold
same,Fold-change after 5Aza-dC treatment,"[2]; GAGE6, AsPC1",15.59 fold
same,Fold-change after 5Aza-dC treatment,"[2]; GAGE7, AsPC1",14.08 fold
same,Fold-change after 5Aza-dC treatment,"[2]; HOXA1, AsPC1",25.8 fold
same,Fold-change after 5Aza-dC treatment,"[2]; IGF2, AsPC1",0.55 fold
same,Fold-change after 5Aza-dC treatment,"[2]; IL1R1, AsPC1",7.51 fold
same,Fold-change after 5Aza-dC treatment,"[2]; ISG20, AsPC1",−1.12 fold
same,Fold-change after 5Aza-dC treatment,"[2]; JPH3, AsPC1",1.27 fold
same,Fold-change after 5Aza-dC treatment,"[2]; KLK10, AsPC1",1.03 fold
same,Fold-change after 5Aza-dC treatment,"[2]; LDOC1, AsPC1",8.99 fold
same,Fold-change after 5Aza-dC treatment,"[2]; LHX1, AsPC1",5.22 fold
same,Fold-change after 5Aza-dC treatment,"[2]; MAGE1, AsPC1",1.52 fold
same,Fold-change after 5Aza-dC treatment,"[2]; MATN1, AsPC1",−1.44 fold
same,Fold-change after 5Aza-dC treatment,"[2]; NEFH, AsPC1",2.94 fold
same,Fold-change after 5Aza-dC treatment,"[2]; NPTX2, AsPC1",13.97 fold
same,Fold-change after 5Aza-dC treatment,"[2]; PAX6, AsPC1",8.94 fold
same,Fold-change after 5Aza-dC treatment,"[2]; PDYN, AsPC1",1.33 fold
same,Fold-change after 5Aza-dC treatment,"[2]; PLAT, AsPC1",−1.15 fold
same,Fold-change after 5Aza-dC treatment,"[2]; PLEK2, AsPC1",1.37 fold
same,Fold-change after 5Aza-dC treatment,"[2]; SARP2, AsPC1",−1.89 fold
same,Fold-change after 5Aza-dC treatment,"[2]; SMARCA1, AsPC1",7.89 fold
same,Fold-change after 5Aza-dC treatment,"[2]; ST14, AsPC1",−1.21 fold
same,Fold-change after 5Aza-dC treatment,"[2]; TIMP3, AsPC1",11.89 fold
same,Fold-change after 5Aza-dC treatment,"[2]; TJP2, AsPC1",−1.24 fold
same,Fold-change after 5Aza-dC treatment,"[2]; TNF, AsPC1",−1.17 fold
same,Fold-change after 5Aza-dC treatment,"[2]; UCHL1, AsPC1",6.62 fold
same,Fold-change after 5Aza-dC treatment,"[2]; WNT7A, AsPC1",2.7 fold
same,Fold-change after 5Aza-dC treatment,"[2]; XAGE-1, AsPC1",28.59 fold
same,Fold-change after 5Aza-dC treatment,"[2]; granulocytemacrophage colony-stimulating factor (M11734), AsPC1",1.44 fold
same,Fold-change after 5Aza-dC treatment,"[2]; interferon, alpha-inducible protein (NM_022873), AsPC1",4.48 fold
same,Fold-change after 5Aza-dC treatment,"[2]; p53-induced protein (PIGII), AsPC1",−1.22 fold
same,Fold-change after 5Aza-dC treatment,"[2]; reprimo, AsPC1",1.66 fold
same,Fold-change after 5Aza-dC treatment,"[2]; stratifin (14-3-3 sigma), AsPC1",−1.48 fold
same,Fold-change after 5Aza-dC treatment,"[2]; stromal antigen 3 (STAG5), AsPC1",14.06 fold
same,Fold-change after 5Aza-dC treatment,"[2]; testin, AsPC1",−1.23 fold
